Target: Mitogen-activated protein kinase 14 (Homo sapiens, UniProt Q16539)
Assay: Inhibition of p38-alpha MAP kinase

Chain of Mitogen-activated protein kinase 14 (Q16539 whole entry): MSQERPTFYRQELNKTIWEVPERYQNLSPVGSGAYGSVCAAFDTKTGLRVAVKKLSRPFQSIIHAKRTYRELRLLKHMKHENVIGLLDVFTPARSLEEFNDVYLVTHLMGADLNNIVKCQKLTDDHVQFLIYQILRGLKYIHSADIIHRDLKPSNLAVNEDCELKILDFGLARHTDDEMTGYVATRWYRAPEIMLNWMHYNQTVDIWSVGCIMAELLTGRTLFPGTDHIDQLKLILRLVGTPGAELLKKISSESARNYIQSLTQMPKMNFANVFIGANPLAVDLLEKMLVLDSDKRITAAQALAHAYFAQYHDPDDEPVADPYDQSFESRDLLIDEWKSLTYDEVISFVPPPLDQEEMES

| Compound | IC50 [µM] |
| --- | --- |
| O=C(c1cccc2[nH]ccc12)N1CCc2c(cnn2-c2ccccc2Cl)C1 | 0.037 |
| O=C(c1c(F)cccc1F)N1CCn2c(cnc2-c2ccc(F)cc2F)C1 | 0.167 |
| COc1nc2[nH]cc(C(=O)C(=O)N(C)C)c2cc1C(=O)N1CCn2c(cnc2-c2ccc(F)cc2F)C1 | 0.029 |
| COc1cc2c(cc1C(=O)N1CCn3c(cnc3-c3ccc(F)cc3F)C1)c(C(=O)C(=O)N(C)C)cn2C | 0.013 |
| CC(C)n1ccc2cc(C(=O)N3CCc4c(cnn4-c4ccccc4Cl)C3)ccc21 | 0.039 |
| COc1nc2[nH]ccc2cc1C(=O)N1CCc2c(cnn2-c2ccccc2Cl)C1 | 0.137 |
| O=C(c1c(F)cccc1F)N1CCc2c(cnn2-c2ccccc2Cl)C1 | 0.068 |
| COc1cc2c(ccn2C)cc1C(=O)N1CCn2c(cnc2-c2ccc(F)cc2F)C1 | 0.038 |
| O=C(c1ccc(F)cc1F)N1CCn2c(cnc2-c2ccc(F)cc2F)C1 | 0.593 |
| O=C(c1ccc2cc[nH]c2c1)N1CCc2c(cnn2-c2ccccc2Cl)C1 | 0.04 |

The remaining molecules from weak to strong by IC50, led by results:

| IC50 [µM] | Compound |
| --- | --- |
| 0.195 | CN(C)C(=O)C(=O)c1cn(C)c2cc(Cl)c(C(=O)N3CCc4c(ncnc4-c4ccc(F)cc4F)C3)cc12 |
| 0.164 | COc1nc2[nH]ccc2cc1C(=O)N1CCn2c(cnc2-c2ccc(F)cc2F)C1 |
| 0.154 | O=C(c1cc2ccccc2[nH]1)N1CCc2c(cnn2-c2ccccc2Cl)C1 |
| 0.112 | O=C(c1c(Cl)cccc1Cl)N1CCc2c(cnn2-c2ccccc2Cl)C1 |
| 0.097 | O=C(c1c(F)cccc1F)N1CCc2c(cnn2-c2ccc(F)cc2Cl)C1 |
| 0.055 | O=C(c1c[nH]c2ccccc12)N1CCc2c(cnn2-c2ccccc2Cl)C1 |
| 0.05 | Cn1ccc2cc(C(=O)N3CCn4c(cnc4-c4ccc(F)cc4F)C3)c(Cl)cc21 |
| 0.04 | Cn1cc(C(=O)N2CCc3c(cnn3-c3ccccc3Cl)C2)c2ccccc21 |
| 0.037 | CN(C)C(=O)C(=O)c1c[nH]c2ccc(C(=O)N3CCc4c(cnn4-c4ccccc4Cl)C3)cc12 |
| 0.033 | CN(C)C(=O)C(=O)c1cn(C)c2cc(Cl)c(C(=O)N3CCc4c(cnn4-c4ccccc4Cl)C3)cc12 |
| 0.03 | Cn1ccc2cc(C(=O)N3CCc4c(cnn4-c4ccccc4Cl)C3)ccc21 |
| 0.029 | COc1nc2[nH]cc(C(=O)C(=O)N(C)C)c2cc1C(=O)N1CCc2c(cnn2-c2ccccc2Cl)C1 |
| 0.026 | Cn1ccc2cc(C(=O)N3CCc4c(cnn4-c4ccccc4Cl)C3)c(Cl)cc21 |
| 0.016 | COc1nc2c(cc1C(=O)N1CCn3c(cnc3-c3ccc(F)cc3F)C1)c(C(=O)C(=O)N1CCC(O)C1)cn2C (racemic) |
| 0.014 | CN(C)C(=O)C(=O)c1cn(C)c2cc(Cl)c(C(=O)N3CCn4c(cnc4-c4ccc(F)cc4F)C3)cc12 |
| 0.011 | CN(C)C(=O)C(=O)c1c[nH]c2cc(Cl)c(C(=O)N3CCn4c(cnc4-c4ccc(F)cc4F)C3)cc12 |

From ChEMBL document CHEMBL1146251, “Synthesis and SAR of p38alpha MAP kinase inhibitors based on heterobicyclic scaffolds” (Bioorg Med Chem Lett, 2007)
